Test results taken from ChEMBL document CHEMBL6153034, “Synthesis of dolutegravir derivatives modified by 1,2,3-triazole structure and their anti-inflammatory activity in LPS-induced BV2 cells” (Bioorg Med Chem Lett, 2025).
Activity calls are given as the source filed them. No cut-off for these calls is given here.

How the values were obtained:
[1] = system: BV-2; assay: Antiinflammatory activity in LPS-induced mouse BV-2 cells assessed as downregulation of COX-2 protein expression level preincubated for 2 hrs followed by LPS addition and measured after 24 hrs by Western blot analysis; type: functional, cell-based; settings: dose 5-10 µM, time 26.0 hrs
[2] = molecular target: T1, Signal transducer and activator of transcription 1 (Mus musculus) (UniProt P42225); assay: Inhibition of STAT1 phosphorylation at Tyr701 residue in LPS-induced mouse BV-2 cells at 5 to 10 uM preincubated for 2 hrs followed by LPS addition and measured after 3 hrs by Western blot analysis; type: cell-based; settings: dose 5-10 µM, time 5.0 hrs
T1 sequence (whole entry): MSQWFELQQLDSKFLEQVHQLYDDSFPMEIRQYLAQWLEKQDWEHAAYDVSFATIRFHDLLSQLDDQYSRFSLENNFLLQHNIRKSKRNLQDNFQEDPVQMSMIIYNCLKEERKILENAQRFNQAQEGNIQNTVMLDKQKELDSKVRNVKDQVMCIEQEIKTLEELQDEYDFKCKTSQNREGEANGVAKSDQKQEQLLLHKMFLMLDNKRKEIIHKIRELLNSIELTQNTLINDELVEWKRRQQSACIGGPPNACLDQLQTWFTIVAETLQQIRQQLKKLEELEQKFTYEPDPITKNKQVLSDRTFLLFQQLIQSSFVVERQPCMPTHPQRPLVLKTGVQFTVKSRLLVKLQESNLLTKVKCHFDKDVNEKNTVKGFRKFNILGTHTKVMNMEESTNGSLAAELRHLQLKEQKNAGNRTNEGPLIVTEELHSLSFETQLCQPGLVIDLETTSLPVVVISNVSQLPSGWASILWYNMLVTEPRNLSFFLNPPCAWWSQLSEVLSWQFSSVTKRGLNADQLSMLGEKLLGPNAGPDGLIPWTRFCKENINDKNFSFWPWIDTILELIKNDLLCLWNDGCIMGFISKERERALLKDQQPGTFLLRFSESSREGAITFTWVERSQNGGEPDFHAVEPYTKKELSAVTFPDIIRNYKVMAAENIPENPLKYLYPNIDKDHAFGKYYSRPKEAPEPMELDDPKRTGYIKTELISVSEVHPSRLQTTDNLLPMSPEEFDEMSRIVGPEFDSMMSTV

[3] = system: BV-2; assay: Inhibition of LPS-induced nuclear translocation of p-STAT3 in mouse BV-2 cells at 10 uM preincubated for 2 hrs followed LPS addition and measured after 3 hrs by Western blot analysis; type: functional, cell-based; settings: time 5.0 hrs
[4] = Acute toxicity in male Kunming mouse assessed as effect on organ coefficient of lung at 250 mg/kg administered via gavage; type: organism-based; settings: in vivo, po
[5] = system: BV-2; assay: Antiinflammatory activity in LPS-induced mouse BV-2 cells assessed as downregulation of iNOS protein expression level preincubated for 2 hrs followed by LPS addition and measured after 24 hrs by Western blot analysis; type: functional, cell-based; settings: dose 5-10 µM, time 26.0 hrs
[6] = system: BV-2; assay: Antiinflammatory activity in LPS induced mouse BV-2 cells assessed as NO production at 10 uM by Griess reagent based assay relative to control
[7] = system: BV-2; assay: Antiinflammatory activity in LPS induced mouse BV-2 cells assessed as downregulation of IL-1beta mRNA expression level preincubated for 2 hrs followed by LPS addition and measured after 24 hrs by qRT-PCR analysis; type: functional, cell-based; settings: dose 5-10 µM, time 26.0 hrs

Which Activity [1] does the source give for COc1c2n(cc(C(=O)Nc3cccc(-c4cn(-c5ccccc5Cl)nn4)c3)c1=O)C[C@@H]1OCC[C@@H](C)N1C2=O here?
The Activity was “Dose-dependent-effect”.

What about the inhibition [2] of the same compound?
The inhibition was “Active”.

And the inhibition [3]?
Its inhibition is “Active”.

And the Activity [4]?
The Activity was “Non-toxic”.

What about the Activity [5] of the same compound?
The Activity was “Dose-dependent-effect”.

What about the level, % of control at 10 µM [6] of the same compound?
Its level, % of control at 10 µM is 43%.

What about the Activity [7] of the same compound?
The Activity was “Dose-dependent-effect”.
